T1: α-ketoamide reductase (Saccharomyces cerevisiae, UniProt Q07551)
T1 construct: 500 g of live baker's yeast was purchased from Oriental yeast and the fungal cells were used to purify the enzyme; tissue Oriental Yeast; host or cells: live baker's yeast cells; enzyme purified to a single SDS-PAGE band
T1 sequence (Q07551 1-312): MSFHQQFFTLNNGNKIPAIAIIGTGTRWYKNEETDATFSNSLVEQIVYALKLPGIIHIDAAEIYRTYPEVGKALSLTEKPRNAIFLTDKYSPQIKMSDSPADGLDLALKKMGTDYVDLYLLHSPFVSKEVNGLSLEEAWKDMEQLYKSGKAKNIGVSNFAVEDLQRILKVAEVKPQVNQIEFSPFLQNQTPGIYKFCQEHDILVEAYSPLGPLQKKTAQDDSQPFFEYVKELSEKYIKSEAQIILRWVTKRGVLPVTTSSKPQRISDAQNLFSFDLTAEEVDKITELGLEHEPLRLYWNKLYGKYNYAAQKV

B1: α-ketoamide reductase: NADPH-dependent α-ketoamide reductase purified from baker's yeast, encoded by YDL124w (SEQ ID NO: 2) (protein, listed as Saccharomyces cerevisiae)
chain: MSFHQQFFTLNNGNKIPAIAIIGTGTRWYKNEETDATFSNSLVEQIVYALKLPGIIHIDAAEIYRTYPEVGKALSLTEKPRNAIFLTDKYSPQIKMSDSPADGLDLALKKMGTDYVDLYLLHSPFVSKEVNGLSLEEAWKDMEQLYKSGKAKNIGVSNFAVEDLQRILKVAEVKPQVNQIEFSPFLQNQTPGIYKFCQEHDILVEAYSPLGPLQKKTAQDDSQPFFEYVKELSEKYIKSEAQIILRWVTKRGVLPVTTSSKPQRISDAQNLFSFDLTAEEVDKITELGLEHEPLRLYWNKLYGKYNYAAQKV

Biological target: T1, α-ketoamide reductase
Assay: Substrate specificity of α-ketoamide reductase (relative reducing activity)
Assay type: biochemical
Settings: activity of reducing 2-chlorobenzoyl formamide taken as 100, substrate concentration 1 mM
Method: (§1) The enzyme is incubated in a reaction solution containing 100 mM potassium phosphate buffer (pH 6.5), 0.2 mM NADPH, and 1 mM 2-chlorobenzoyl formamide at 30° C. Adecrease in NADPH concentration is assessed by the decrease in absorbance at 340 nm. 1 U is defined as the amount of enzyme required to catalyze the decrease of 1 μmol NADPH in one minute.
The enzyme obtained in Example 1 was incubated with any one of various α-ketoamides, α-ketoesters, β-ketoesters, aldehydes, ketones, and others. The reducing activity is represented as a relative activity when the activity of reducing 2-chlorobenzoyl formamide is taken as 100.
For `NC(=O)C(=O)c1cccc(Cl)c1`, the “Reducing activity (%)” value was 143%. For `NC(=O)C(=O)c1ccc(Cl)cc1`, the “Reducing activity (%)” value was 71%. For `NC(=O)C(=O)c1ccccc1`, the “Reducing activity (%)” value was 59%. With `CCCCC(=O)C(=O)OCC` the “Reducing activity (%)” value was 49%. In the case of `CC(C)C(=O)C(=O)O`, the “Reducing activity (%)” value is reported as 0%. With `CCOC(=O)CC(=O)CCl` the “Reducing activity (%)” value was 4%. With `CCOC(=O)CC(=O)c1ccccc1` the “Reducing activity (%)” value was 0%. In the case of `CCOC(=O)C(C)C(C)=O` (centres unmarked), the “Reducing activity (%)” value is reported as 0%. For `CCOC(=O)C(Cl)C(C)=O` (centres unmarked), the “Reducing activity (%)” value was 0%. With `C=CCC(C(C)=O)C(=O)OCC` (centres unmarked) the “Reducing activity (%)” value was 0%. With `O=CC(=O)c1ccccc1` the “Reducing activity (%)” value was 120%. With `O=C1CCCCC1=O` the “Reducing activity (%)” value was 10%. In the case of `CC1(C)COC(=O)C1=O`, the “Reducing activity (%)” value is reported as 19%. For `CC(=O)c1ccccc1`, the “Reducing activity (%)” value was 0%. With `O=C(CCl)c1ccccc1` the “Reducing activity (%)” value was 0%. In the case of `CC(=O)COC(C)=O`, the “Reducing activity (%)” value is reported as 0%. In the case of `COCC(C)=O`, the “Reducing activity (%)” value is reported as 0%. With `NC(=O)C(=O)c1ccccc1Cl` [2-chlorobenzoyl formamide] the “Reducing activity (%)” value was 100%. With `CCOC(=O)C(=O)c1ccccc1` [drawing 5] the “Reducing activity (%)” value was 32%. For `CCOC(=O)C(C)=O` [drawing 6], the “Reducing activity (%)” value was 9%. For `CCOC(=O)C(=O)CC` [drawing 7], the “Reducing activity (%)” value was 33%. With `CCCC(=O)C(=O)OCC` [drawing 8] the “Reducing activity (%)” value was 46%. In the case of `CCCCCC(=O)C(=O)OCC` [drawing 10], the “Reducing activity (%)” value is reported as 50%. With `CCOC(=O)C(=O)C(C)C` [drawing 11] the “Reducing activity (%)” value was 71%.

Biological target: T1, α-ketoamide reductase
Assay: Stereoselectivity of α-ketoamide reductase (optical purity of reduction product)
Assay type: biochemical
Settings: product of reduction; 0.2 U purified enzyme, 10 μmol substrate, 10 μmol NADPH, pH 7.0, 37° C., 6 hours
Method: 0.2 U of the purified enzyme and each of various α-ketoamides and α-ketoesters (10 μmol each) were incubated in 0.5 ml of 0.1 M potassium phosphate buffer (pH 7.0) in the presence of 10 μmol NADPH at 37° C. for 6 hours. The resulting α-hydroxy amides and α-hydroxyesters were extracted with ether, and then the optical purity of each compound was determined.
The optical purity was determined by the procedure described below.
The optical purity of 2-chloromandelamide was determined by chiral HPLC method or chiral GC method. The chiral HPLC method comprises chromatography using CHIRALPAK AS-H (DAICEL CHEMICAL INDUSTRIES, LTD.). The elution was carried out using a mixed solution of n-hexane and ethanol (85:15) at a flow rate 1.0 mL/min and a column temperature of 25° C. The elution peak for the compound was detected by UV absorbance at 254 nm. Under these conditions, 2-chloromandelamide was eluted 7.5 minutes (R-isomer) and 10.1 minutes (S-isomer) after the start of elution.
The chiral GC method comprises chromatography using GAMMA DEX 225 (SUPELCO; 30 m×0.25 mm×0.25 μm film thickness) under the following conditions: column temperature, 190° C.; injection temperature, 220° C.; detection temperature 220° C.; carrier gas, He/1.0 kg/cm^2. Under the conditions described above, the S-isomer was eluted 27.0 minutes, and the R-isomer was eluted 29.3 minutes after the start of the elution.
The optical purities of the other α-hydroxyesters were determined by the chiral GC method described below using Chirasil-DEX CB column (Varian; […]×0.25 μm film thickness). GAMMA DEX 225 was used to determine the optical purities of ethyl lactate (injection temperature, 180° C.; column temperature, […]; detection temperature, 180° C.; R-isomer, 6.13 minutes; S-isomer, 6.82 minutes), ethyl 2-hydroxybutyrate (injection temperature, 180° C.; column temperature, 100° C.; detection temperature, 180° C.; R-isomer, 5.88 minutes; S-isomer, 6.32 minutes), ethyl 2-hydroxyvalerate (injection temperature, 180° C.; column temperature, 110° C.; detection temperature, 180° C.; R-isomer, 6.17 minutes; S-isomer, 6.88 minutes), ethyl 2-hydroxy heptanoate (injection temperature, 180° C.; column temperature, 120° C.; detection temperature, 180° C.; R-isomer, 11.20 minutes; S-isomer, 12.00 minutes), and 2-hydroxyisovalerate (injection temperature, 180° C.; column temperature, 90° C.; detection temperature, 180° C.; R-isomer, 10.42 minutes; S-isomer, 10.89 minutes).
In the case of `NC(=O)C(=O)c1ccccc1Cl` [drawing 25], the “Optical purity (%)” value is reported as >99%. In the case of `CCOC(=O)C(C)=O` [drawing 26], the “Optical purity (%)” value is reported as >99%. With `CCOC(=O)C(=O)CC` [drawing 27] the “Optical purity (%)” value was >99%. In the case of `CCCC(=O)C(=O)OCC` [drawing 28], the “Optical purity (%)” value is reported as 98%. For `CCCCCC(=O)C(=O)OCC` [drawing 29], the “Optical purity (%)” value was >99%. For `CCOC(=O)C(=O)C(C)C` [drawing 30], the “Optical purity (%)” value was >99%. In the case of `CCOC(=O)C(=O)c1ccccc1` [drawing 31], the “Optical purity (%)” value is reported as 97%.

Same assay, conditions: purified enzyme (summary)
For `NC(=O)C(=O)c1ccccc1Cl` [2-chlorobenzoyl formamide], the “purity of (R)-2-chloromandelamide produced” value was ≥ 99%.

Tested on: not listed separately
Assay: 2-chlorobenzoyl formamide-reducing activity of enzyme preparations
Assay type: biochemical
Settings: purified enzyme; 1 mM 2-chlorobenzoyl formamide, 0.2 mM NADPH, pH 6.5, 30° C.
Method: as §1
Cells of E. coli DH10B strain containing pSE-YDL1 or pSG-YDL1 were grown on LB medium containing ampicillin. Cells were induced with 0.1 mM IPTG for 4 hours, and then the cells were harvested by centrifugation.
Each sample of cells was suspended in cell lysis buffer (50 mM potassium phosphate buffer (pH 8.0) containing 0.02% 2-mercaptoethanol). The cells were crushed by sonication. Then, the lysates were centrifuged and the resulting supernatants were saved as cell-free extracts.
For B1, the specific activity was “about 105 U/mg”.

Same assay, conditions: purified enzyme; 1 mM 2-chlorobenzoyl formamide, 0.2 mM NADPH, pH 6.5, 30° C.; listed as purified enzyme
Molecule B1 has a specific activity of 105 U/mg.

Tested on: not listed separately
Assay: pH and temperature dependency and stability of α-ketoamide reductase
Assay type: biochemical
Settings: 100 mM potassium phosphate buffer (pH 7.0), 30 minutes
Method: The pH of the reaction solution was altered using 0.1 M sodium acetate buffer (pH 4.0-5.5), potassiumphosphate buffer (pH 5.5-7.5), Tris-hydrochloride buffer (pH 7.5-9.0), and glycine-potassium hydroxide buffer (pH 9.0-10.5) to assess the pH dependency of the 2-chlorobenzoyl formamide-reducing activity of the enzyme obtained in Example 1. The activity at each pH was determined as a relative activity when the maximal activity was taken as 100. The optimal pH (pH range in which the relative activity is 80% or higher) was 5.5-6.5.
The enzyme obtained in Example 1 was assessed for 2-chlorobenzoyl formamide-reducing activity under standard reaction conditions at various temperatures. The activity at each temperature was determined as a relative activity when the maximal activity was taken as 100. The optimal temperature (temperature range in which the relative activity is 80% or higher) was 35 to 47° C.
The purified enzyme was incubated in 0.1 M sodium acetate buffer (pH 4.0-5.5), 0.1 M potassium phosphate buffer (pH 6.0-7.5), 0.1 M Tris-hydrochloride buffer (pH 8.0-9.0), or 0.1 M glycine-potassium hydroxide buffer (pH 9.5-10.5) at 37° C. for 10 minutes. Then, the enzymatic activity was determined as a relative activity when the activity before the treatment was taken as 100. The stable pH range (pH range in which the residual activity is 80% or higher) was pH 5.5 to 9.5.
The purified enzyme was incubated in 100 mM potassium phosphate buffer (pH 7.0) at 20 to 50° C. for 30 minutes. The temperature range in which the enzyme activity is stable (temperature range in which the residual activity is 80% or higher) falls within the range comprising 40° C. and lower temperatures.
In the case of B1, the “temperature range in which the residual activity is 80% or higher” value is reported as ≤ 40 °C.

Same assay, conditions: 2-chlorobenzoyl formamide-reducing activity
For B1, the “optimal pH (pH range in which the relative activity is 80% or higher)” value was 5.5-6.5.

Same assay, conditions: 37° C. for 10 minutes
With B1 the “stable pH range (pH range in which the residual activity is 80% or higher)” value was 5.5 to 9.5.

Same assay, conditions: standard reaction conditions
For B1, the “optimal temperature (temperature range in which the relative activity is 80% or higher)” value was 35 to 47 °C.

Reference: patent US20080261286A1, “Methods for producing optically active alpha-hydroxy amides” (Daicel Chemical Industries, Ltd., priority 2004, published 2008)
